The text below walks through data of PMC3163375, “Design, Synthesis and Biological Evaluation of New 5,5-Diarylhydantoin Derivatives as Selective Cyclooxygenase-2 Inhibitors” (Scientia Pharmaceutica, 2011).

In one series the target is T1, ovine COX-2 (Ovis aries, UniProt P79208).
T1 construct: purchased Cayman Chemical, Ann Arbor, MI, USA
T1 sequence (P79208 17-603): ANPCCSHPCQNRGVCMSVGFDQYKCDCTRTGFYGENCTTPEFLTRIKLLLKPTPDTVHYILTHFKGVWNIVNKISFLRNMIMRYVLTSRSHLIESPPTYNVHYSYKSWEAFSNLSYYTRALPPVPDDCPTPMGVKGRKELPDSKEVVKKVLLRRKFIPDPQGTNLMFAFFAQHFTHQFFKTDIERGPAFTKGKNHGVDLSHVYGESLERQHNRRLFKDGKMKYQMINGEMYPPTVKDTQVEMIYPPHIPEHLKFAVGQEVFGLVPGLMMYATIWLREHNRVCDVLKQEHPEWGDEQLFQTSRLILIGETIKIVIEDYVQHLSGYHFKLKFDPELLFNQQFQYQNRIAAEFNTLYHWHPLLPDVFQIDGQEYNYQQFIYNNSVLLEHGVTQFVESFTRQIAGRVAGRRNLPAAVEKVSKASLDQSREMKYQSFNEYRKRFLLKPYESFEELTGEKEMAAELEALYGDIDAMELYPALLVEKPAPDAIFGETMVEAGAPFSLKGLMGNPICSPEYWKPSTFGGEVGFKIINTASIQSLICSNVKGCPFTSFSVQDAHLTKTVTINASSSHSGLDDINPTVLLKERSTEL
Put plainly: In vitro COX-2 enzyme inhibition, chemiluminescent enzyme assay kit (Cayman). Type of series: biochemical. Particulars: for Selectivity index (SI): In vitro COX-2 selectivity index (COX-1 IC50/COX-2 IC50); for IC50: ovine COX-1/COX-2 assay kit, means of two determinations, deviation < 10% of the mean. The protocol:
(§1) All of the prepared 5,5-diarylhydantoin derivatives having different substituents at the N-3 hydantoin ring were evaluated to investigate the effect of different alkyls on COX-2 selectivity and potency. The ability of the 5,5-diarylhydantoin 4–8 to inhibit the COX-1 and COX-2 isozymes was determined using chemiluminescent enzyme assays (see enzyme inhibition data in Table 1.) according to our previously reported method.
(§2) The ability of the test compounds listed in Table 1 to inhibit ovine COX-1 and COX-2 (IC50 value, μM) was determined using chemiluminescent enzyme assays kit (Cayman Chemical, Ann Arbor, MI, USA) according to our previously reported method.

Another series addresses T2, ovine COX-1 (Ovis aries, UniProt P05979).
T2 construct: purchased Cayman Chemical, Ann Arbor, MI, USA
T2 sequence (P05979 25-600): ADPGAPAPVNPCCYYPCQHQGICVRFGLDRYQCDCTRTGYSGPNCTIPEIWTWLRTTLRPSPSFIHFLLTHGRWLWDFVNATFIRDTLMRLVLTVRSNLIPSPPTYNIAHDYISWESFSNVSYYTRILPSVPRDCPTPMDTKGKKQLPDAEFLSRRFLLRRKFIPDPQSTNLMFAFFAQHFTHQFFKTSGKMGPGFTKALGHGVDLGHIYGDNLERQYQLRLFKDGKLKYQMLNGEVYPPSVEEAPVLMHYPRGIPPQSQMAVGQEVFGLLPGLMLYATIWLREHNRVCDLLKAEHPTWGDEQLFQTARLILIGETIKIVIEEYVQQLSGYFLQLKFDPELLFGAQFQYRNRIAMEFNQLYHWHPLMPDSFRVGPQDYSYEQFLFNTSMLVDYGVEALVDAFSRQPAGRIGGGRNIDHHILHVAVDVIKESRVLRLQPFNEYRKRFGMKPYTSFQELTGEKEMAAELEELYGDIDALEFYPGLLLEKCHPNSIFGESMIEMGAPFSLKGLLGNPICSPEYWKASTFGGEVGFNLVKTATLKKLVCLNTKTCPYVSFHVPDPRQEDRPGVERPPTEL
Put plainly: In vitro COX-1 enzyme inhibition, chemiluminescent enzyme assay kit (Cayman). Type of series: biochemical. Particulars: ovine COX-1/COX-2 assay kit; means of two determinations, deviation < 10% of the mean. The protocol: as §1, §2

Molecules are shown by their SMILES.

The compound `CCCN1C(=O)NC(c2ccccc2)(c2ccc(S(C)(=O)=O)cc2)C1=O` (stereo not shown) [Compound 7, 5-[4-(Methylsulfonyl)phenyl]-5-phenyl-3-propylimidazolidine-2,4-dione] yielded a melting point of 82 to 83 °C. At ovine COX-2, the “Selectivity index (SI)” value came to 70.2 and inhibition was half-maximal at 0.171 µM (IC50). Moreover, at ovine COX-1, the IC50 is 12 µM.
The compound `CN1C(=O)NC(c2ccccc2)(c2ccc(S(C)(=O)=O)cc2)C1=O` (stereo not shown) [Compound 5, 3-Methyl-5-[4-(methylsulfonyl)phenyl]-5-phenylimidazolidine-2,4-dione] came in with a melting point of 212 to 214 °C. Moreover, at ovine COX-2, the “Selectivity index (SI)” value is recorded as 280.1 and half-maximal inhibition (IC50) required 0.081 µM. The compound further had an IC50 on ovine COX-1 of 22.7 µM.
The compound `C=CCN1C(=O)NC(c2ccccc2)(c2ccc(S(C)(=O)=O)cc2)C1=O` (stereo not shown) [Compound 8, 5-[4-(Methylsulfonyl)phenyl]-5-phenyl-3-(prop-2-en-1-yl)imidazolidine-2,4-dione] displayed a melting point of 129 to 130 °C. Also, on ovine COX-2, the “Selectivity index (SI)” value is reported as 151.1 and the 50% inhibitory concentration (IC50) came to 0.099 µM. For the same compound, the IC50 on ovine COX-1 was 15 µM.
For the compound `CS(=O)(=O)c1ccc(C2(c3ccccc3)NC(=O)NC2=O)cc1` (stereo not shown) [Compound 4, 5-[4-(Methylsulfonyl)phenyl]-5-phenylimidazolidine-2,4-dione], the “Selectivity index (SI)” value at ovine COX-2 was over 1298. The half-inhibitory concentration (IC50) at ovine COX-2 was 0.077 µM; against ovine COX-1, over 100 µM.
In turn, `CCN1C(=O)NC(c2ccccc2)(c2ccc(S(C)(=O)=O)cc2)C1=O` (stereo not shown) [Compound 6, 3-Ethyl-5-[4-(methylsulfonyl)phenyl]-5-phenylimidazolidine-2,4-dione] displayed a melting point of 91 to 92 °C. For the same compound, at ovine COX-2, the “Selectivity index (SI)” value stood at 206.2 and half-maximal inhibition (IC50) was put at 0.098 µM. In addition, at ovine COX-1, 20.2 µM corresponded to half-maximal inhibition (IC50).

The term IC50 denotes the midpoint of a concentration-inhibition curve. Usually melting point stands for the temperature of the solid-liquid transition.
